Experimental data as given in patent publication US20250195598A1, “FLAVONOID ACTIVE FRACTION OF AN ABELMOSCHI COROLLA, PREPARATION METHOD AND APPLICATION THEREOF” (SUZHONG PHARMACEUTICAL GROUP CO., LTD., priority 2022, published 2025).

Tests used:
[1] = compared with the control group; cited from earlier work
[2] = tested on: diabetic kidney disease model, C57BL/6 mice; experiment: streptozotocin (STZ)+high-fat-fed diabetic kidney disease model; assay type: in vivo; conditions: samples 62.4 mg/kg, Dapagliflozin tablet 45.5 mg/kg
Description: Administration method: intragastric administration. Experimental modeling: after 3 days of adaptive feeding, the experimental mice were fed with high-fat and high-sugar feed (made by laboratory according to a formula of lard:sucrose:yolk:basic feed=18:20:3:59) for 8 consecutive weeks, and then intraperitoneally injected with an STZ sodium citrate solution according to a dosage of 100 mg/kg for 7 consecutive days. […] When the blood glucose was greater than 13.8 mmol/L, and there were urine protein and renal function abnormality, the modeling was successful. Experimental groups: there were a total of 6 groups, comprising a normal group, a model group, a positive drug group (Dapagliflozin tablet, 45.5 mg/kg), a sample group prepared by the method of Embodiment 2-1 (62.4 mg/kg), a sample group prepared by the method of Embodiment 6 (62.4 mg/kg) and a sample group prepared by the method of Embodiment 8 (62.4 mg/kg), with 15 mice in each group. After 4 weeks of administration, urine protein and urine creatinine were detected, and a daily food intake and a mouse state were calculated.

[3] = tested on: db/db mice; experiment: db/db mice diabetic kidney disease model; assay type: in vivo; conditions: samples 62.4 mg/kg, Dapagliflozin tablet 45.5 mg/kg
Description: Animal model: db/db mice, 16 weeks old, and C57 BL/6 mice, 16 weeks old. Administration mode: intragastric administration. Experimental modeling: the db/db mice were raised for 17 weeks, and then urine protein was detected. When there were urine protein and renal function abnormality, the modeling was successful for later experiment. Experimental groups: there were a normal group of the C57 BL/6 mice, a model group of the db/db mice, a positive drug group (Dapagliflozin tablet, 45.5 mg/kg), a sample group prepared by the method of Embodiment 3-1 (62.4 mg/kg), a sample group prepared by the method of Embodiment 9.1 (62.4 mg/kg), and a sample group prepared by the method of Embodiment 2-A3 (62.4 mg/kg). There were 6 groups in total, with 15 mice in each group. After 4 weeks of administration, urine protein, urine creatinine and a daily food intake were detected, and a mouse state was observed.

[4] = tested on: MRL/lpr mice; experiment: lupus erythematosus nephritis; assay type: in vivo; conditions: Dexamethasone 1 mg/kg, Embodiment 2-B 69.9 mg/kg, other samples 87.36 mg/kg
From the text: 26 male MRL/lpr mice (lupus erythematosus nephritis mice) were selected as an observation group 1, with 18 g to 22 g weight and 13 weeks old, which were purchased from Nanjing Junke Bioengineering Co., Ltd., and 24 male C57BL/6 mice were selected as a normal group, with 18 g to 22 g weight and 13 weeks old, which were purchased from Wuhan Hualianke Biotechnology Co., Ltd.
The mice were administrated for 4 weeks.
After administration, 24-hour urine was collected to detect urine protein. After the urine was collected, eyeballs of all the mice were taken for blood collection, and the collected blood was centrifuged to obtain serum for antinuclear antibody detection. Meanwhile, kidneys of the mice were taken out, quickly frozen in liquid nitrogen, and stored in a refrigerator at −80° C. for kidney immune detection.

[5] = tested on: SD rats; experiment: contrast-induced kidney injury; assay type: in vivo; conditions: intragastric, 4 weeks; Irbesartan 50 mg/kg/d, samples 69.9 or 87.36 mg/kg (groups of b143 differ from the table)
Description: Experimental animals: SD rats, 200 g to 250 g weight, SPF grade, half male and half female.
(§1) Administration mode: intragastric administration.
Experimental modeling: healthy male SD rats were selected, intramuscularly injected with furosemide (10 ml/kg) first, and then injected with a prostaglandin synthesis inhibitor (indomethacin, 10 mg/kg, dissolved in dimethyl sulfoxide, and diluted with 1.25% of NAHCO3 solution), a nitric oxide synthase inhibitor (N-nitro-L-arginine-methyl ester hydrochloride, L-NAME, 10 mg/kg, dissolved in 0.9% of NaCl solution) and 76% of meglumine diatrizoate by tail vein every 15 minutes.
In animal models, the increase of serum creatinine exceeding the baseline by 50% was often used as the diagnostic criterion of acute kidney injury, that was, the success criterion of modeling.
Drug groups and administration dosages: there were a normal group, a model group, a positive control drug group (Irbesartan 50 mg/kg/d), a sample group of Embodiment 2-1 (69.9 mg/kg), a sample group of Embodiment 3.1 (87.36 mg/kg), a sample group of Embodiment 7 (87.36 mg/kg), a sample group of Embodiment 9.1 (87.36 mg/kg) and a sample group of Embodiment 9.2 (87.36 mg/kg, the solids prepared according to Embodiment 9.2), with 15 rats in each group. […]

[6] = tested on: Kunming mice; experiment: bleomycin-induced idiopathic pulmonary fibrosis; assay type: in vivo; conditions: HE staining, four grades, 28 days; Rosiglitazone 5 mg/kg, samples 70 mg/kg, Huangkui Capsule 180 mg/kg based on the extract
Description: Experimental animals: 60 Kunming mice, half male and half female, 18 g to 22 g weight, clean grade.
Animal groups: the mice were randomly divided into 6 groups, which comprise a normal group, a model group, a drug control group (5 mg/kg of Rosiglitazone), a sample group prepared by the method of Embodiment 2-A3 (70 mg/kg), a sample group prepared by the method of Embodiment 9.2 (70 mg/kg) and a Huangkui Capsule sample group (180 mg/kg based on the extract), with 10 mice in each group.
Experimental modeling: after 3 days of adaptive feeding, the experimental mice were anesthetized by intraperitoneal injection with 4% chloral hydrate (0.01 ml/g). Taking a supine fixed position, routine disinfection was carried out, a median cervical incision was made, and a trachea was exposed by passive separation. The model group, the control group and the treatment group were slowly injected with bleomycin (5 mg/kg) into a space between tracheal cartilaginous rings, and the normal control group was injected with the same volume of normal saline. The mice were immediately rotated upright for 3 minutes to 5 minutes after the injection, so that the liquid medicine was evenly distributed in both lungs, then skin of the mice was sutured and disinfected at a suture, and the mice after waking were sent to a clean grade observation room for feeding. […]

[7] = compounds having five hydroxyl groups; cited from earlier work
[8] = tested on: Brown-Norway rats; experiment: ocular blood flow and choroidal neovascularization after krypton laser photocoagulation; assay type: in vivo; conditions: intragastric, after 4 weeks; Verteporfin 1.35 mg/kg, Embodiment 2-1 69.9 mg/kg, other samples 87.36 mg/kg
Description: Experimental animals: rats, 150 g to 180 g weight, SPF grade, half male and half female.
as §1
Experimental modeling: healthy male Brown-Norway rats were selected and anesthetized by intramuscular injection of ketamine (50 mg/kg), pupils of the rats were dilated with a mixed mydriatic of 0.5% tropicamide and neofolin, and 8 points were photocoagulated between great retinal vessels around an optic disc at a distance 2 to 4 disc diameters away from the optic disc under a 120D special front lens by a krypton yellow laser (Lumenis Company in the United States) (wavelength 568 nm, and parameters: spot diameter […], exposure time 0.1 second, and power 150 mW to 200 mW). […]
Drug groups and administration dosages: there were a normal group, a model group, a positive control drug group (Verteporfin 1.35 mg/kg), a sample group of Embodiment 2-1 (69.9 mg/kg), a sample group of Embodiment 3.1 (87.36 mg/kg), a sample group of Embodiment 7 (87.36 mg/kg), a sample group of Embodiment 9.1 (87.36 mg/kg) and a sample group of Embodiment 9.2 (87.36 mg/kg, solids prepared according to Embodiment 9.2), with 15 rats in each group. After 4 weeks of administration, an inhibition rate of choroidal blood flow and an area of choroidal neovascularization of eyes were detected.

**Q.** With `Cc1ccc([C@@H]2O[C@H](CO)[C@@H](O)[C@H](O)[C@H]2O)cc1Cc1ccc(-c2ccc(F)cc2)s1` [Canagliflozin] as the compound, how does the “serum uric acid level” value [1] read?
**A.** Its value is “significantly reduces”.

**Q.** With `CCOc1ccc(Cc2cc([C@@H]3O[C@H](CO)[C@@H](O)[C@H](O)[C@H]3O)ccc2Cl)cc1` [Dapagliflozin tablet, Dapagliflozin] as the compound, how does the Urine albumin-to-creatinine ratio ([2]; intragastric, after 4 weeks of administration) read?
**A.** The Urine albumin-to-creatinine ratio was 1.04 ± 1.09.

**Q.** What about the Urine protein/mg ([2]; intragastric, after 4 weeks of administration, 15 mice per group) of the same compound?
**A.** The Urine protein/mg was 17.51 ± 12.34 mg.

**Q.** What about the “Abdominal distension/number of mice” value ([2]; of 15 mice per group, 4 weeks) of the same compound?
**A.** The value was 0 number of mice.

**Q.** And the Diarrhea/number of mice ([2]; of 15 mice per group, 4 weeks)?
**A.** Its Diarrhea/number of mice is 0 number of mice.

**Q.** And the Urine albumin-to-creatinine ratio/ ([3]; intragastric, after 4 weeks)?
**A.** The Urine albumin-to-creatinine ratio/ was 1.17 ± 1.26.

**Q.** And the Urine protein/mg ([3]; intragastric, after 4 weeks)?
**A.** Its Urine protein/mg is 15.09 ± 10.27 mg.

**Q.** What about the “Abdominal distension/number of mice” value ([3]; of 15 mice per group, 4 weeks) of the same compound?
**A.** Its value is 0 number of mice.

**Q.** And the Diarrhea/number of mice ([3]; of 15 mice per group, 4 weeks)?
**A.** Its Diarrhea/number of mice is 0 number of mice.

**Q.** For `C[C@@H]1C[C@H]2[C@@H]3CCC4=CC(=O)C=C[C@]4(C)[C@@]3(F)[C@@H](O)C[C@]2(C)[C@@]1(O)C(=O)CO` [Dexamethasone], which Urine protein ([4]; 24-hour urine after 4 weeks) is on record?
**A.** The Urine protein was 11.67 ± 3.45.

**Q.** What about the “C3 level of kidney” value ([4]; kidney tissue after 4 weeks) of the same compound?
**A.** The value was 1.21 ± 0.67.

**Q.** And the “IgG level of kidney” value ([4]; kidney tissue after 4 weeks)?
**A.** The value was 1.32 ± 0.67.

**Q.** And the “Logarithm of antinuclear antibody titers” value ([4]; serum after 4 weeks)?
**A.** Its value is 0.81 ± 0.11.

**Q.** Which “serum uric acid level” value [1] does the source give for `OC[C@H]1O[C@@H](c2ccc(Cl)c(Cc3ccc(O[C@H]4CCOC4)cc3)c2)[C@H](O)[C@@H](O)[C@@H]1O` [Empagliflozin] here?
**A.** Its value is “significantly reduces”.

**Q.** Which “serum uric acid level” value [1] does the source give for `OC[C@H]1O[C@@H](c2ccc(F)c(Cc3cc4ccccc4s3)c2)[C@H](O)[C@@H](O)[C@@H]1O` [Ipragliflozin] here?
**A.** The value was “significantly reduces”.

**Q.** Which Serum creatinine [5] does the source give for `CCCCC1=NC2(CCCC2)C(=O)N1Cc1ccc(-c2ccccc2-c2nnn[nH]2)cc1` [Irbesartan] here?
**A.** Its Serum creatinine is 16.67 ± 1.23.

**Q.** And the Serum urea nitrogen [5]?
**A.** The Serum urea nitrogen was 3.01 ± 0.98.

**Q.** For `CCOc1ccc(Cc2cc([C@@H]3S[C@H](CO)[C@@H](O)[C@H](O)[C@H]3O)c(OC)cc2C)cc1` [Luseogliflozin], which “serum uric acid level” value [1] is on record?
**A.** Its value is “significantly reduces”.

**Q.** Which results are given for `CN(CCOc1ccc(CC2SC(=O)NC2=O)cc1)c1ccccn1` (stereo not drawn) [Rosiglitazone]?
**A.** Degree of pulmonary alveolitis [6]: 1.03 ± 0.49; Degree of pulmonary fibrosis [6]: 1.15 ± 0.81

**Q.** Which “serum uric acid level” value [1] does the source give for `CCc1ccc(Cc2ccc3c(c2)[C@]2(OC3)O[C@H](CO)[C@@H](O)[C@H](O)[C@H]2O)cc1` [Tofogliflozin] here?
**A.** Its value is “significantly reduces”.

**Q.** Which “effect on ocular blood flow” value [7] does the source give for `O=c1c(O)c(-c2ccc(O)c(O)c2)oc2cc(O)cc(O)c12` [quercetin] here?
**A.** The value was “negative effect”.

**Q.** With Verteporfin as the compound, how does the “Area of choroidal angiogenesis/μm^2” value [8] read?
**A.** Its value is 19.80 ± 1.23^# μm^2.

**Q.** And the “Ocular choroidal blood flow inhibition ratio” value [8]?
**A.** Its value is 87.98 ± 11.23.
